Consider three compounds from US9267122B2, “Modulation of phospholipase D for the treatment of neurodegenerative disorders” (THE TRUSTEES OF COLUMBIA UNIVERSITY IN THE CITY OF NEW YORK, priority 2009, dated 2016).

For orientation: IC50 means the concentration that inhibits the measured activity by half.

“Also recorded” adds a separate entry of the source.

For one assay, the system named is Calu-1. As to conditions: cited from earlier work.
The target in the next assay is T1, PLD1 (Homo sapiens, UniProt Q13393).
T1 sequence (Q13393 1-1074): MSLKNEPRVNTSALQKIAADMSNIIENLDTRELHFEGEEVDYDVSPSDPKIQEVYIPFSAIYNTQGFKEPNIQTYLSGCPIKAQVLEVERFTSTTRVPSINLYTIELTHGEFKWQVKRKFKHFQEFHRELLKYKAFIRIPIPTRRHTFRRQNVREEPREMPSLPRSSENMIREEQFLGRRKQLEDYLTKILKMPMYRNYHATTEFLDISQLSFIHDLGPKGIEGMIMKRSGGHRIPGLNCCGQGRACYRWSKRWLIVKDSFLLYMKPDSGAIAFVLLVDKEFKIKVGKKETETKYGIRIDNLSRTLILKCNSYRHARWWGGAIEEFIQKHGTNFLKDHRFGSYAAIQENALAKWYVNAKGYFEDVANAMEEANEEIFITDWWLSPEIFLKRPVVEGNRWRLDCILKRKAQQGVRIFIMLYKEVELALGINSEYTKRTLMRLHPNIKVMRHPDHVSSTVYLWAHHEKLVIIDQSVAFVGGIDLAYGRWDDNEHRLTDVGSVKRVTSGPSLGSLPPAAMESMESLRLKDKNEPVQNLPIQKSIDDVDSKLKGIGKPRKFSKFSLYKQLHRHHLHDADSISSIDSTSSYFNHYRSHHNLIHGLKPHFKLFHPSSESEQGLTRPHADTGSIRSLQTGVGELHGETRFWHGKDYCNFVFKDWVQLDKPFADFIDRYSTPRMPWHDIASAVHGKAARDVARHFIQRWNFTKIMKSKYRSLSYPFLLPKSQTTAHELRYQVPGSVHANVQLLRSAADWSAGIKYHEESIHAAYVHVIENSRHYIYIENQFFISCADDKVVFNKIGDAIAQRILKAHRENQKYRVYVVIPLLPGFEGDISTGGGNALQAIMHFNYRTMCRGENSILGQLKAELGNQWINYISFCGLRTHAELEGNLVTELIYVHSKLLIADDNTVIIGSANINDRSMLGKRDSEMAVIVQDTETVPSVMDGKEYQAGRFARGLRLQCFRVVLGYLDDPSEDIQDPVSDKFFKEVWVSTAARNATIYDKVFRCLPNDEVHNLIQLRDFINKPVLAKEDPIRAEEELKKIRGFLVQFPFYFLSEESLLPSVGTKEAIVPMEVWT
To be noted: PLD1 versus PLD2; cited from earlier work.

The test system of assay [1] is N2a cells expressing swAPP. As to the kind of experiment: Aβ secretion by N2a cells expressing swAPP (ELISA). It is filed as cell-based. Here is the method:
N2a cells expressing swAPP after reaching confluence, were replaced with new media and treated either with vehicle (black) or FIPI (gray) for 6 hours. The media was collected and both Aβ40 (A) and Aβ42 (B) were measured by ELISA. n=6.
Background: In an ELISA, binding on a coated surface is turned into a signal by an enzyme label.

In another assay the test system is primary cortical neurons. Nature of the assay: Rescue of oAβ42-induced decrease in PIP2 levels in primary cortical neuronal cultures. It is filed as cell-based, mice. As to conditions: 750 nM FIPI pretreatment for 1 hour, then 200 nM oAβ42 for 2 hours; n=3.
The test system of another assay is 293-PLD2. As to conditions: cited from earlier work.

For the compound `C[C@@H](CN1CCC(n2c(=O)[nH]c3cc(Br)ccc32)CC1)NC(=O)[C@@H]1C[C@H]1c1ccccc1` [compound 13r, (1R,2R)—N—((S)-1-(4-(5-bromo-2-oxo-2,3-dihydro-1H-benzo[d]imidazol-1-yl)piperidin-1-yl)propan-2-yl)-2-phenylcyclopropanecarboxamide], the IC50 in the assay with Calu-1 is 3.7 nM.

Take `O=C(NCCN1CCC(n2c(=O)[nH]c3ccccc32)CC1)c1cc2cc(F)ccc2[nH]1` [FIPI, 5-Fluoro-2-indolyl des-chlorohalopemide]: the PLD isoform selectivity entry at PLD1 is “blocks both PLD1 and PLD2”. Also, in assay [1] (N2A cells expressing swAPP treated with FIPI, 6 hours, ELISA of media), the “secreted Aβ42” value is “secrete lower amounts of Aβ42”. Besides, the “production of Aβ (Aβ40 and Aβ42)” value in assay [1] (N2a swAPP cells, FIPI versus vehicle for 6 hours, ELISA, n=6) is on record as “decrease production of Aβ”. In addition, in the assay on primary cortical neurons, the “PIP2 levels after oAβ42” value is “partially rescues oAβ42 induced decrease in PIP2 levels; also recorded: partially rescue PIP2 deficiency”.

For `O=C(NCCN1CCC2(CC1)C(=O)NCN2c1ccccc1)c1cnc2ccccc2c1` [compound 9b, N-(2-(4-oxo-1-phenyl-1,3,8-triazaspiro[4,5]decan-8-yl)ethyl)quinoline-3-carboxamide], the IC50 is 90 nM in the assay with 293-PLD2 and 1900 nM in the assay on Calu-1.
